In US8530404B2, “Compounds and methods for treatment of cancer” (FibroGen, Inc., priority 2005, dated 2013):
Read-outs that look alike come from different tables or passages of the source.

Legend:
[1] = Body weight in H-460 xenograft mice (Example 1); assay type: in vivo, mouse
Procedure: Sizes of the primary tumors were measured through the skin with calipers once per week. Tumor volumes were calculated by the formula V═(W^2*L)/2. Body weight of the mice in each group was also measured once per week during the experimental period. All animals were sacrificed following thirty-two days of treatment. Primary tumors were excised and weighed on an electronic balance. Blood samples were taken during terminal sacrifice and placed in microhematocrit tubes containing EDTA. Complete Blood Counts (CBC) and reticulocyte analysis were performed with the Cell Dyn 3700 analyzer (Abbott Diagnostics), as described by the manufacturer.
Thus, differences in tumor progression as measured by mean tumor volumes could not be attributed to any generalized toxicity or suppression of normal metabolism that might have been detected by changes in body weights.

[2] = system: human A549 lung tumors; assay: Subcutaneously implanted human A549 lung tumor mouse xenograft (Example 2); assay type: in vivo; settings: for tumor weight at necropsy, Mean / A549 mean tumor volume: 20 mg/kg PO; for increase in mean tumor volume: within 1 week (7 days) from start, 20 mg/kg, vehicle control 45%
Excerpt: Immuno-compromised athymic CD-1 nu/nu nude mice males (5-6 weeks old) were used in this study (Charles River Laboratories, Wilmington, Mass.). Animals were maintained in a HEPA-filtered environment during the experimental period. Cages, food, and bedding were autoclaved. Animal diets were obtained from Harlan Teklad (Madison, Wis.). […] A stock tumor was established by subcutaneously injecting a cell suspension into nude mice. The resulting tumor was maintained in nude mice subcutaneously as tumor stock prior to use. Tumor implantation was performed when the stock tumors were in log phase of growth. Before implantation, tumor tissue was harvested from stock mice and placed in RPMI-1640 medium. Necrotic tissues were dissected away and viable tissues were cut into 1-2 mm^2 pieces. Tumor fragments were then transplanted subcutaneously to the right flank of the nude mice. Treatment (administration of compounds of the present invention) was started when the inoculated tumors reached approximately 100 mm^3, and continued for four weeks. […] Sizes of the primary tumors were measured through the skin with calipers once per week. […] Body weight of the mice in each group was also measured once per week during the experimental period. All animals were sacrificed following thirty-two days of treatment. Primary tumors were excised and weighed on an electronic balance. Blood samples were taken during terminal sacrifice and placed in microhematocrit tubes containing EDTA. Complete Blood Counts (CBC) and reticulocyte analysis were performed with the Cell Dyn 3700 analyzer (Abbott Diagnostics), as described by the manufacturer. Procedures were carried out as described above for Example 1, with the following changes. The human H-460 lung cancer cell line was replaced by the human A549 lung cancer cell line. Xenografted H460 tumors are characterized by a high growth rate, while xenografted A549 tumors progress substantially more slowly. A549 has been characterized extensively. […] Hanze et al., (2003) Biochem Biophys Res Commun 312:571-577; Wedge et al., (2002) Cancer Res 62:4645-4655; and Abdollahi et al., (2003) Cancer Res 63:8890-8898.) Compound B treatment groups (6 mg/kg, 20 mg/kg) were replaced by compound D treatment groups (6 mg/kg, 20 mg/kg). Other experimental parameters were identical to those described in Example 1 above.

[3] = system: BNIP3L gene expression; assay: In vivo BNIP3L gene expression in Swiss Webster mice (quantitative PCR); settings: Mus musculus, iv, 4 h, single 60 mg/kg i.v. dose, four hours after administration, normalized to 18S
Procedure: The effects of various compounds of the present invention on the expression of genes associated with tumor growth and progression (e.g., expression of genes associated with anti-proliferative effects) were examined in vivo as follows. In these studies, male Swiss Webster mice (25 g) were administered a single intravenous (i.v.) dose of various compounds (60 mg/kg) of the present invention via the tail vein. Four hours after administration of compound, the kidneys and liver were removed and preserved in RNAlater (Ambion). RNA isolation and cDNA synthesis was carried out as follows. Murine kidney tissue was added to TRIzol (Invitrogen) and homogenized using a 5-mm stainless steel bead for 4 minutes at 25 Hz in a Mixer Mill 300 (Qiagen). Homogenates were extracted with chloroform according to the manufacturer's instructions and aqueous supernatants were isolated. The aqueous supernatants were combined with equal volumes of 70% ethanol and then loaded onto RNeasy Mini spin columns (Qiagen). RNA was isolated according to the manufacturer's instructions.
Synthesis of cDNA from the isolated total RNA was carried out using Omniscript reverse transcriptase (Qiagen) and random primers according to the manufacturer's instructions. Measurement of gene expression levels in compound-treated animals and in vehicle-treated control animals was performed by quantitative PCR using TaqMan Universal PCR Master Mix (Applied Biosystems) and TaqMan Assay-on-Demand assays (Applied Biosystems) in a Prism 7000 system instrument (Applied Biosystems), according to manufacturer's instructions. The assays used were as follows: 18S ribosomal RNA, Hs99999901_s1; BNIP3, Mm00833810_g1; BNIP3L, Mm00786306_s1; NDRG1, Mm00440447_m1. Each PCR amplification reaction included a standard curve and a water blank. Data for gene expression levels for BNIP3, BNIP3L, and NDRG1 were normalized to that of 18S ribosomal RNA within each sample. Data is presented as fold change in specific mRNA levels relative to that of non-treated control animals.

[4] = read-out: fold change in BNIP3L mRNA level, kidney
[5] = read-out: fold change in BNIP3L mRNA level, liver

SMILES	mean animal body weight ([1]; day 0, 20 mg/kg PO) [grams]	mean animal body weight ([1]; day 10, 20 mg/kg PO) [grams]	mean animal body weight ([1]; day 17, 20 mg/kg PO) [grams]	mean animal body weight ([1]; day 24, 20 mg/kg PO) [grams]	mean animal body weight ([1]; day 31, 20 mg/kg PO) [grams]	tumor weight at necropsy, Mean [2] [g]	A549 mean tumor volume ([2]; week 0) [mm^3]	A549 mean tumor volume ([2]; week 1) [mm^3]	A549 mean tumor volume ([2]; week 2) [mm^3]	A549 mean tumor volume ([2]; week 3) [mm^3]	A549 mean tumor volume ([2]; week 4) [mm^3]	fold induction at 60 mg/kg [3, 4]	increase in mean tumor volume [2] [%]	fold induction at 60 mg/kg [3, 5]	other results
O=C(O)CNC(=O)c1nc(Cl)c2ccccc2c1O [Compound A, [(1-Chloro-4-hydroxy-isoquinoline-3-carbonyl)-amino]-acetic acid]	25.2	30.1	30.5	30.6	30.3	0.76	100	138	173	241	328				mean animal body weight ([1]; day 0, 60 mg/kg PO): 24.5 grams; mean animal body weight ([1]; day 10, 60 mg/kg PO): 30.0 grams; mean animal body weight ([1]; day 17, 60 mg/kg PO): 30.5 grams; mean animal body weight ([1]; day 24, 60 mg/kg PO): 30.6 grams; mean animal body weight ([1]; day 31, 60 mg/kg PO): 29.9 grams
C[C@H](NC(=O)c1ncc2cc(Oc3ccccc3)ccc2c1O)C(=O)O [Compound B, (S)-2-[(4-Hydroxy-7-phenoxy-isoquinoline-3-carbonyl)-amino]-propionic acid]	25.7	27.8	29.0	29.3	29.3							1.2			mean animal body weight ([1]; day 0, 6 mg/kg PO): 26.3 grams; mean animal body weight ([1]; day 10, 6 mg/kg PO): 27.9 grams; mean animal body weight ([1]; day 17, 6 mg/kg PO): 29.1 grams; mean animal body weight ([1]; day 24, 6 mg/kg PO): 29.3 grams; mean animal body weight ([1]; day 31, 6 mg/kg PO): 29.3 grams
COc1ccc(Oc2ccc3c(O)c(C(=O)NCC(=O)O)ncc3c2)cc1 [Compound C, {[4-Hydroxy-7-(4-methoxy-phenoxy)-isoquinoline-3-carbonyl]-amino}-acetic acid]	25.7	29.4	29.9	31.0	30.9	0.50	102	124	152	180	208	0.9	22	2.6	
Cc1nc(C(=O)NCC(=O)O)c(O)c2ccc(Oc3ccccc3)cc12 [Compound D, [(4-Hydroxy-1-methyl-7-phenoxy-isoquinoline-3-carbonyl)-amino]-acetic acid]						0.58	106	126	148	193	227	5	20	1.2	
O=C(O)CNC(=O)c1ncc2cc(Oc3ccc(F)cc3)ccc2c1O [Compound E, {[7-(4-fluoro-phenoxy)-4-hydroxy-isoquinoline-3-carbonyl]-amino}-acetic acid]												0.8		1.7	
